In ChEMBL document CHEMBL1156244, “Recent advances in the identification of gamma-secretase inhibitors to clinically test the Abeta oligomer hypothesis of Alzheimer's disease” (J Med Chem, 2009):

Legend:
[1] = Inhibition of gamma secretase-mediated amyloid beta (1 to 40) production
[2] = target: Gamma-secretase; test: Inhibition of gamma secretase-mediated amyloid beta (1 to 40) production in human H4 cells; type: cell-based
[3] = test system: Mus musculus; test: Inhibition of gamma secretase-mediated amyloid beta (1 to 40) production in brain of po dosed transgenic 2576 mouse by sandwich ELISA; type: functional
[4] = Metabolic stability in rat liver microsomes assessed as compound remaining after 20 mins; type: ADME, Microsome; conditions: read-out: Stability
[5] = test system: Mus musculus; test: Inhibition of gamma secretase-mediated amyloid beta (1 to 40) production in brain of po dosed human APP transgenic YAC mouse; type: functional
[6] = Inhibition of gamma secretase-mediated total amyloid beta production
[7] = test system: Mus musculus; test: Inhibition of gamma secretase-mediated total amyloid beta production in brain of po dosed mouse; type: functional
[8] = test system: Brain; test: Drug level in po dosed human APP transgenic YAC mouse brain; type: ADME, organism-based; conditions: in vivo, read-out: Drug uptake
[9] = target: Gamma-secretase; test: Inhibition of gamma secretase-mediated amyloid beta (1 to 40) production in human SH-SY5Y cells; type: cell-based
[10] = Ratio of drug level in brain to plasma in po dosed human APP transgenic YAC mouse; type: ADME, organism-based; conditions: read-out: BPR
[11] = target: Gamma-secretase; test: Inhibition of gamma secretase-mediated total amyloid beta production in HEK293 cells; type: cell-based, Homo sapiens
[12] = target: Gamma-secretase; test: Displacement of [3H]5-chloro-N-((2S,3R)-5,5,5-trifluoro-1-hydroxy-3-methylpentan-2-yl)thiophene-2-sulfonamide from gamma secretase in human SH-SY5Y cells by competitive binding assay; type: cell-based
[13] = test system: Mus musculus; test: Inhibition of gamma secretase-mediated amyloid beta (1 to 40) production in brain of transgenic 2576 mouse at 200 umol/kg, po; type: functional
[14] = target: Gamma-secretase; test: Inhibition of human gamma secretase-mediated amyloid beta (1 to 40) production expressed in CHO cells; type: cell-based
[15] = Inhibition of gamma secretase-mediated amyloid beta (1 to 40) production by cell-free assay
[16] = Inhibition of gamma secretase-mediated amyloid beta (1 to 40) production by cell-based assay

Question: With `O=S(=O)(c1ccc(Cl)cc1)C1(c2cc(F)ccc2F)CCCCC1` as the compound, how does the IC50 [1] read?
Answer: 3 nM

Question: Which IC50 [2] does the source give for `CC(C)C[C@H](NC(=O)Cc1ccc2ccccc2c1)C(=O)N[C@@H](CC1CCCCC1)[C@H](O)Cc1ccccc1C(=O)NC(C)(C)C` here?
Answer: 4700 nM

Question: Which IC50 [1] does the source give for `CCCNS(=O)(=O)N[C@H]1[C@@H]2CC[C@H]1Cc1ccccc1C2` here?
Answer: 132 nM

Question: With `C[C@H](c1ccc(F)cc1CCCC(=O)O)N(c1cc(F)ccc1F)S(=O)(=O)c1ccc(Cl)cc1` as the compound, how does the ED50 [3] read?
Answer: 18 mg/kg

Question: With `CC[C@@H]1C[C@H]2C[C@@](c3cc(F)ccc3F)(S(=O)(=O)c3ccc(Cl)cc3)CC[C@H]2NS1(=O)=O` as the compound, how does the IC50 [1] read?
Answer: 0.06 nM

Question: And the remaining at 20 min [4]?
Answer: 93%

Question: And the ED50 [5]?
Answer: 2.8 mg/kg

Question: With `CC[C@H](C)[C@H](NC(=O)N(Cc1ccccc1)C[C@@H](O)[C@H](Cc1ccccc1)NC(=O)[C@@H](NC(=O)OC(C)(C)C)C(C)C)C(=O)N[C@H](C(=O)OC)C(C)C` as the compound, how does the IC50 [6] read?
Answer: 70 nM

Question: With `C[C@H](CC(F)(F)F)[C@@H](CO)NS(=O)(=O)c1ccc(Cl)s1` as the compound, how does the IC50 [1] read?
Answer: 100 nM

Question: Which ED50 [7] does the source give for `C[C@H](NC(=O)[C@@H](O)c1cc(F)cc(F)c1)C(=O)N[C@@H]1C(=O)N(C)c2ccccc2-c2ccccc21` here?
Answer: < 1 mg/kg

Question: And the IC50 [1]?
Answer: 0.03 nM

Question: With `O=C(OCC1CCc2ccccc2N1S(=O)(=O)c1ccc(Cl)cc1)N1CCC(N2CCCCC2)CC1` (stereo not given) as the compound, how does the IC50 [1] read?
Answer: 39 nM

Question: Which results are given for `O=S(=O)(N[C@H]1[C@@H]2CC[C@H]1Cc1ccc(/C=C/CN3CCOCC3)cc1C2)c1ccc(Cl)s1`?
Answer: concentration [8]: 16.7 µM; IC50 [9]: 1 nM; ED50 [5]: 17 mg/kg; Kp [10]: 2.11

Question: Which IC50 [9] does the source give for `O=S(=O)(N[C@H]1[C@@H]2CC[C@H]1Cc1ccccc1C2)c1ccc(Cl)cc1` here?
Answer: 467 nM

Question: With `CCCN1C[C@]2(NS1(=O)=O)[C@@H]1CC[C@H]2Cc2ccccc2C1` as the compound, how does the IC50 [1] read?
Answer: 138 nM

Question: Which IC50 [11] does the source give for `CCC[C@H](C(N)=O)[C@@H](CC(C)C)C(=O)N[C@H]1CCCCN(Cc2cccc(-c3ccc(F)c(Cl)c3)c2)C1=O` here?
Answer: 17000 nM

Question: Which IC50 [9] does the source give for `C[C@H](NC(=O)Cc1cc(F)cc(F)c1)C(=O)N[C@H]1N=C(c2ccccc2)c2ccccc2N(C)C1=O` here?
Answer: 2.7 nM

Question: What about the IC50 [12] of the same compound?
Answer: 1 nM

Question: What does the source list for `CC1(C)[C@H]2CC[C@](C)(C2)[C@H]1NS(=O)(=O)c1ccc(F)cc1`?
Answer: IC50 [9]: 2630 nM; IC50 [12]: 966 nM

Question: What does the source list for `O=S(=O)(N[C@@H](CO)C(C(F)(F)F)C(F)(F)F)c1ccc(Cl)s1`?
Answer: IC50 [1]: > 30000 nM; IC50 [9]: > 30000 nM; IC50 [12]: > 10000 nM

Question: Which inhibition in vivo at 200 µmol/kg [13] does the source give for `C[C@H](NC(=O)Cc1cc(F)cc(F)c1)C(=O)NC1C(=O)N(C)N(C)C(=O)c2ccccc21` (stereo not given in full) here?
Answer: 43%

Question: Which IC50 [14] does the source give for `CCOC(=O)N1CCC(c2ccccc2OC)(S(=O)(=O)c2ccc(Cl)cc2)CC1` here?
Answer: 3500 nM

Question: For `CN1C(=O)[C@@H](NC(=O)[C@H](Cc2ccc(F)c(F)c2)c2ccc(F)cc2)N=C(c2ccccc2)c2ccccc21`, which IC50 [1] is on record?
Answer: 4 nM

Question: With `O=S(=O)(Cc1cc(F)ccc1F)c1ccc(Cl)cc1` as the compound, how does the IC50 [1] read?
Answer: 4410 nM

Question: What does the source list for `CC[C@H](C)[C@@H](NC(=O)[C@H](NC(=O)[C@H](NC(=O)C(C)(C)NC(=O)CNC(=O)[C@H](NC(=O)OC(C)(C)C)C(C)C)C(C)C)C(C)C)C(=O)NC(C)(C)C(=O)N[C@H](Cc1ccc(C(=O)c2ccccc2)cc1)C(=O)N[C@@H](C(=O)NC(C)(C)C(=O)OC)C(C)C`?
Answer: IC50 [15]: 10 nM; IC50 [16]: 70 nM

Question: With `CCCNC(=O)OC[C@@H](C)N(c1cc(Cl)ccc1CO)S(=O)(=O)c1ccc(Cl)cc1` as the compound, how does the IC50 [9] read?
Answer: 47 nM

Question: And the IC50 [12]?
Answer: 57 nM

Question: What about the IC50 [14] of the same compound?
Answer: 100 nM
